Measurements as given in US20250269018A1, “COMBINED CANCER THERAPY WITH AN EPITHELIAL CELL ADHESION MOLECULE (EPCAM) INHIBITOR AND A HEPATOCYTE GROWTH FACTOR RECEPTOR (HGFR) INHIBITOR” (ACADEMIA SINICA, priority 2021, published 2025).
“Also recorded” adds a separate entry of the source.

System: HCT116 cells
Assay: Transwell migration/invasion and wound healing assay, HCT116
Format: cell-based, human
Details: for EpEX-induced invasion: 50 nM EpEX, LY 25 μM, U0 20 μM, PF 10 μM, Transwell with matrigel, FIG. 4K; for EpEX-induced migration and invasion: HCT116 cells, discussion statement
Experimental: FIGS. 3A to 3H. EpEX induces the activation of ERK and FAK-AKT signaling pathway. Wild type (WT) or EpCAM knockout (KO) HCT116 cells after EpEX-His treatment. (FIG. 3A) The levels of phosphorylated HGFR, AKT, FAK, GSK3β, ERK, ADAM17, and presenilin 2 were assayed by Western blotting. (FIG. 3B) Colony formation was examined by crystal violet staining. (FIG. 3C) HCT116 cells were treated with TAPI (ADAM17 inhibitor) or DAPT (γ-secretase inhibitor) for 24 hours, and the phosphorylation of HGFR, AKT, and ERK was analyzed by Western blotting, and EpEX protein level in culture medium was examined by immunoprecipitation and Western blotting. (FIG. 3D) HCT116 and HT29 cells were starved for 16 h, then treated with EpEX-His (50 nM) and HGF (0.5 nM) for 15 min. The levels of phosphorylated HGFR, AKT, and ERK were examined by Western blotting. (FIG. 3E) HCT116 cells were starved for 16 h, then treated with 50 nM EpEX-His for 15 min. HGFR inhibitor SU11274 (SU, 10 μM), AKT inhibitor LY294002 (LY, 25 μM), ERK inhibitor U0126 (U0, 20 μM), or FAK inhibitor PF-562271 (PF, 10 μM) were applied 1 h before EpEX treatment. Phosphorylation of AKT, ERK, and FAK was examined by Western blotting. (FIG. 3F) HCT116 cells were starved for 16 h, then treated with 50 nM EpEX, and SU (10 μM), LY (25 μM), U0 (20 μM) or PF (10 μM). Colony formation was examined by crystal violet staining after treatment for 7 days. The relative colony densities are shown. Migration ability was examined by the (FIG. 3G) wound healing assay at the indicated times. (FIG. 3H) The numbers of migration cell was assessed by a Transwell after treatment for 24 h.
FIGS. 4A to 4L. EpEX induces EMT and invasion by stabilizing β-catenin and Snail through decreasing GSK3β activity. (FIG. 4A) The protein expression of EMT markers and regulators was detected by Western blotting in Wild-type (WT) or EpCAM knockout (KO) HCT116 cells after EpEX treatment. (FIG. 4B) Cell invasion was examined by Transwell chamber assay with matrigel. (FIG. 4C) WT or KO HCT116 and HT29 cells were starved for 16 h, then treated with 0.5 nM of HGF with 2% FBS for 24 h. EMT-related protein expression (E-cadherin, vimentin, and Snail) was examined by Western blotting. (FIG. 4D) WT or KO HCT116 and HT29 cells were treated with HGF (0.5 nM) for 24 h. Invasion by HCT116 and HT29 cells was examined by Transwell chamber assay with matrigel. (FIG. 4E) HCT116 and HT29 cells were starved for 16 h, then treated with 0.5 nM of HGF with 2% FBS for 24 h. EMT-related protein expression (E-cadherin, Vimentin, and Snail) was examined by Western blotting. (FIG. 4F) HCT116 and HT29 cells were starved for 16 h, then treated with 0.5 nM of HGF with 2% FBS for 24 h. Cell invasion was assessed by a Transwell assay with matrigel. (FIG. 4G) HCT116 cells after shLuc and shHGFR treatment were treated with 50 nM of EpEX-His. HCT116 cells after shLuc and shHGFR treatment were treated with 50 nM of EpEX-His with 2% FBS for 24 h. EMT-related protein expression (E-cadherin, Vimentin, and Snail) was examined by Western blotting. (FIG. 4H) Cell invasion was examined by Transwell chamber assay with matrigel. (FIG. 4I) Starved HCT116 cells were treated SU (10 μM) for 1 h, followed by treatment with EpEX-His (50 nM) for 24 h. Phosphorylated GSK3β, active-β-catenin, and Snail were detected by Western blotting. (FIG. 4J) HCT116 cells were starved for 16 h, then treated with 50 nM EpEX-His for 24 min. AKT inhibitor LY294002 (25 μM), ERK inhibitor U0126 (20 μM), or PF-562271 (10 μM) were applied 1 h before EpEX treatment. Protein expression of phosphorylated GSK3β and Snail was examined by Western blotting. (FIG. 4K) HCT116 cells were starved for 16 h, then treated with 50 nM EpEX, and SU (10 μM), LY (25 μM), UO (20 μM) or PF (10 μM). Cell invasion was examined by Transwell chamber assay with matrigel. (FIG. 4L) Protein expression was analyzed by Western blotting in EpEX-His (50 nM) treated HCT116 cells after treatment with or without 2 μM GSK3β inhibitor (BIO) for 24 h. […]

Molecule | EpEX-induced invasion (HCT116) | EpEX-induced migration and invasion | invasion and migration activities of HCT116 cells (EpAb2-6 10 μg/ml, wound healing, Transwell with matrigel 24 h) | effects of EpAb2-6 on invasion and migration when treated with HGF after EpAb2-6 (HCT116, EpAb2-6 10 μg/ml and HGF 0.5 nM, FIGS. 6C and 6D)
N#CC(=C(/N)Sc1ccccc1N)/C(C#N)=C(\N)Sc1ccccc1N [U0126] | suppressed | attenuate EpEX-induced migration and invasion | – | –
CN(c1ncccc1CNc1nc(Nc2ccc3c(c2)CC(=O)N3)ncc1C(F)(F)F)S(C)(=O)=O [PF-562271] | suppressed | attenuate EpEX-induced migration and invasion | – | –
Cc1[nH]c(C=C2C(=O)Nc3ccc(S(=O)(=O)N(C)c4cccc(Cl)c4)cc32)c(C)c1C(=O)N1CCN(C)CC1 (stereo in doubt) [SU11274, (3Z)-N-(3-Chlorophenyl)-3-({3,5-dimethyl-4-[(4-methylpiperazin-1-yl)carbonyl]-1H-pyrrol-2-yl}methylene)-N-methyl-2-oxo-2,3-dihydro-1H-indole-5-sulfonamide] | – | attenuate EpEX-induced migration and invasion | – | –
EpAb2-6: anti-EpCAM neutralizing monoclonal antibody targeting EpEX; VH SEQ ID NO: 15, VL SEQ ID NO: 16 (antibody, listed as Homo sapiens, V domains shown) VH: VKLQESGPELKKPGETVKISCKASGYTFTDYSMHWVKQAPGKGLKWMGWINTETGEPTYADDFKGRFAFSLETSASTAYLQINNLKNEDTATYFCARTAVYWGQGTTVTVSS VL: DIQMTQSPSSLSASLGERVSLTCRASQEISVSLSWLQQEPDGTIKRLIYATSTLDSGVPKRFSGSRSGSDYSLTISSLESEDFVDYYCLQYASYPWTFGGGTKLEIKRADAAPTVS | – | – | significantly reduced; also recorded: attenuate the invasion and migration capacity of HCT116 cells | partially blunted
